Here are results for 25 molecules from ChEMBL document CHEMBL4834431, “Design of Dimeric Bile Acid Derivatives as Potent and Selective Human NTCP Inhibitors” (J Med Chem, 2021).

Bounds are passed on as bounds.

This experiment relates to Hepatitis B virus. Put plainly: Antiviral activity against HBV infected in human HepG2-NTCP cells assessed as reduction in HBeAg secretion incubated for 24 hrs followed replacement with fresh medium and measured at day 5 post infection by ELISA. In kind it is functional, organism-based.
In the case of `C[C@H](CCC(=O)NCCS(=O)(=O)O)[C@H]1CC[C@H]2[C@@H]3[C@@H](O)C[C@@H]4CC(C5CC[C@@]6(C)[C@@H](C5)C[C@H](O)[C@@H]5[C@@H]6CC[C@]6(C)[C@@H]([C@H](C)CCC(=O)NCCS(=O)(=O)O)CC[C@@H]56)CC[C@]4(C)[C@H]3CC[C@]12C` (stereo not given in full), the IC50 (usually the concentration that inhibits the measured activity by half) is over 10000 nM. `C[C@H](CCc1cn([C@@H]2CC[C@@]3(C)[C@@H](C2)C[C@H](O)[C@@H]2[C@@H]3CC[C@]3(C)[C@@H]([C@H](C)CCC(=O)O)CC[C@@H]23)nn1)[C@H]1CC[C@H]2[C@@H]3[C@@H](O)C[C@@H]4C[C@H](O)CC[C@]4(C)[C@H]3CC[C@]12C`: the IC50 is 25 nM. For the molecule `C[C@H](CCC(=O)NCCS(=O)(=O)O)[C@H]1CC[C@H]2[C@@H]3[C@@H](O)C[C@@H]4CC(O)(C5(O)CC[C@@]6(C)[C@H](C[C@H](O)[C@@H]7[C@@H]6CC[C@]6(C)[C@@H]([C@H](C)CCC(=O)NCCS(=O)(=O)O)CC[C@@H]76)C5)CC[C@]4(C)[C@H]3CC[C@]12C` (stereo not given in full), the concentration for half-maximal inhibition (IC50) is over 10000 nM. Turning to `C[C@@H]1CCCOC(=O)CC[C@@H](C)[C@H]2CC[C@H]3[C@@H]4[C@@H](O)C[C@@H]5C[C@@H](CC[C@]5(C)[C@H]4CC[C@]23C)NC(=O)CCCC(=O)N[C@@H]2CC[C@@]3(C)[C@@H](C2)C[C@H](O)[C@@H]2[C@@H]3CC[C@]3(C)[C@@H]1CC[C@@H]23`, the IC50 was 525 nM. Turning to `C[C@H](CCC(=O)O)[C@H]1CC[C@H]2[C@@H]3[C@@H](O)C[C@@H]4C[C@H](OCCCCCO[C@@H]5CC[C@@]6(C)[C@@H](C5)C[C@H](O)[C@@H]5[C@@H]6CC[C@]6(C)[C@@H]([C@H](C)CCC(=O)NCCS(=O)(=O)O)CC[C@@H]56)CC[C@]4(C)[C@H]3CC[C@]12C`, the half-inhibitory concentration (IC50) worked out at 935 nM. On to `C[C@H](CCC(=O)NCCS(=O)(=O)O)[C@H]1CC[C@H]2[C@@H]3[C@@H](O)C[C@@H]4CC(NC(=O)CCCC(=O)NC5CC[C@@]6(C)[C@@H](C5)C[C@H](O)[C@@H]5[C@@H]6CC[C@]6(C)[C@@H]([C@H](C)CCC(=O)NCCS(=O)(=O)O)CC[C@@H]56)CC[C@]4(C)[C@H]3CC[C@]12C` (stereo not given in full), for which the IC50 came to 41 nM.

Consider `C[C@H](CCC(=O)O[C@@H]1CC[C@@]2(C)[C@@H](C1)C[C@H](O)[C@@H]1[C@@H]2CC[C@]2(C)[C@@H]([C@H](C)CCC(=O)O[C@@H]3CC[C@@]4(C)[C@@H](C3)C[C@H](O)[C@@H]3[C@@H]4CC[C@]4(C)[C@@H]([C@H](C)CCC(=O)NCCS(=O)(=O)O)CC[C@@H]34)CC[C@@H]12)[C@H]1CC[C@H]2[C@@H]3[C@@H](O)C[C@@H]4C[C@H](O)CC[C@]4(C)[C@H]3CC[C@]12C`, for which the IC50 came out at 2650 nM. Take `C[C@H](CCC(=O)NCCS(=O)(=O)O)[C@H]1CC[C@H]2[C@@H]3[C@@H](O)C[C@@H]4C/C(=C5\CC[C@@]6(C)[C@@H](C5)C[C@H](O)[C@@H]5[C@@H]6CC[C@]6(C)[C@@H]([C@H](C)CCC(=O)NCCS(=O)(=O)O)CC[C@@H]56)CC[C@]4(C)[C@H]3CC[C@]12C`: the IC50 was over 10000 nM.

Take `C[C@H](CCC(=O)NCCS(=O)(=O)O)[C@H]1CC[C@H]2[C@@H]3[C@@H](O)C[C@@H]4CC(NCCNC5CC[C@@]6(C)[C@@H](C5)C[C@H](O)[C@@H]5[C@@H]6CC[C@]6(C)[C@@H]([C@H](C)CCC(=O)NCCS(=O)(=O)O)CC[C@@H]56)CC[C@]4(C)[C@H]3CC[C@]12C` (stereo not given in full): the IC50 was determined as 7680 nM. In the case of `C[C@H](CCC(=O)NCCS(=O)(=O)O)[C@H]1CC[C@H]2[C@@H]3[C@@H](O)C[C@@H]4C[C@H](OCC#CC#CCO[C@@H]5CC[C@@]6(C)[C@@H](C5)C[C@H](O)[C@@H]5[C@@H]6CC[C@]6(C)[C@@H]([C@H](C)CCC(=O)NCCS(=O)(=O)O)CC[C@@H]56)CC[C@]4(C)[C@H]3CC[C@]12C`, the IC50 came to 1870 nM.

As to `C[C@H](CCC(=O)NCCS(=O)(=O)O)[C@H]1CC[C@H]2[C@@H]3CC[C@@H]4C[C@H](OC(=O)CCCC(=O)O[C@@H]5CC[C@@]6(C)[C@H](CC[C@@H]7[C@@H]6CC[C@]6(C)[C@@H]([C@H](C)CCC(=O)NCCS(=O)(=O)O)CC[C@@H]76)C5)CC[C@]4(C)[C@H]3CC[C@]12C`, the IC50 was 3240 nM. For the molecule `C[C@@H]1CCC(=O)OCCOC(=O)CC[C@@H](C)[C@H]2CC[C@H]3[C@@H]4[C@@H](O)C[C@@H]5C[C@@H](CC[C@]5(C)[C@H]4CC[C@]23C)NC(=O)CCCC(=O)N[C@@H]2CC[C@@]3(C)[C@@H](C2)C[C@H](O)[C@@H]2[C@@H]3CC[C@]3(C)[C@@H]1CC[C@@H]23`, the IC50 amounted to 185 nM. Take `C[C@@H]1CCC(=O)NCCCCNC(=O)CC[C@@H](C)[C@H]2CC[C@H]3[C@@H]4[C@@H](O)C[C@@H]5CC[C@@H](C[C@]5(C)[C@H]4CC[C@]23C)n2cc(nn2)CO[C@H]2CC[C@H]3C[C@H](O)[C@@H]4[C@H](CC[C@]5(C)[C@@H]1CC[C@@H]45)[C@@]3(C)C2`: the IC50 amounted to 280 nM. Take `C[C@@H]1CCC(=O)NCCCNC(=O)CC[C@@H](C)[C@H]2CC[C@H]3[C@@H]4[C@@H](O)C[C@@H]5CC[C@@H](C[C@]5(C)[C@H]4CC[C@]23C)n2cc(nn2)CO[C@H]2CC[C@H]3C[C@H](O)[C@@H]4[C@H](CC[C@]5(C)[C@@H]1CC[C@@H]45)[C@@]3(C)C2`: the IC50 is 178 nM.

Turning to `C[C@H](CCC(=O)NCCS(=O)(=O)O)[C@H]1CC[C@H]2[C@@H]3[C@@H](O)C[C@@H]4C[C@H](NCCCCCN[C@@H]5CC[C@@]6(C)[C@@H](C5)C[C@H](O)[C@@H]5[C@@H]6CC[C@]6(C)[C@@H]([C@H](C)CCC(=O)NCCS(=O)(=O)O)CC[C@@H]56)CC[C@]4(C)[C@H]3CC[C@]12C`, the IC50 was determined as 9650 nM. For the molecule `C[C@H](CCCNC(=O)CC[C@@H](C)[C@H]1CC[C@H]2[C@@H]3[C@@H](O)C[C@@H]4C[C@H](O)CC[C@]4(C)[C@H]3CC[C@]12C)[C@H]1CC[C@H]2[C@@H]3[C@@H](O)C[C@@H]4C[C@H](O)CC[C@]4(C)[C@H]3CC[C@]12C`, the IC50 was over 10000 nM. As to `C[C@H](CCC(=O)NCCS(=O)(=O)O)[C@H]1CC[C@H]2[C@@H]3[C@@H](O)C[C@@H]4CC(NC(=O)CC(=O)NC5CC[C@@]6(C)[C@@H](C5)C[C@H](O)[C@@H]5[C@@H]6CC[C@]6(C)[C@@H]([C@H](C)CCC(=O)NCCS(=O)(=O)O)CC[C@@H]56)CC[C@]4(C)[C@H]3CC[C@]12C` (stereo not given in full), the IC50 stood at 3570 nM. Next, `C[C@H](CCC(=O)O)[C@H]1CC[C@H]2[C@@H]3[C@@H](O)C[C@@H]4CC(NC(=O)CCCC(=O)NC5CC[C@@]6(C)[C@@H](C5)C[C@H](O)[C@@H]5[C@@H]6CC[C@]6(C)[C@@H]([C@H](C)CCC(=O)O)CC[C@@H]56)CC[C@]4(C)[C@H]3CC[C@]12C` (stereo not given in full): 3570 nM; `C[C@@H]1CCC(=O)NCCNC(=O)CC[C@@H](C)[C@H]2CC[C@H]3[C@@H]4[C@@H](O)C[C@@H]5C[C@H](CC[C@]5(C)[C@H]4CC[C@]23C)NC(=O)CN(C)CC(=O)N[C@@H]2CC[C@@]3(C)[C@@H](C2)C[C@H](O)[C@@H]2[C@@H]3CC[C@]3(C)[C@@H]1CC[C@@H]23`: 1210 nM. `C[C@H](CCCOC(=O)CC[C@@H](C)[C@H]1CC[C@H]2[C@@H]3[C@@H](O)C[C@@H]4C[C@H](O)CC[C@]4(C)[C@H]3CC[C@]12C)[C@H]1CC[C@H]2[C@@H]3[C@@H](O)C[C@@H]4C[C@H](O)CC[C@]4(C)[C@H]3CC[C@]12C`: the half-inhibitory concentration (IC50) was 2700 nM.

As to `C[C@@H]1CCC(=O)NCCCCCNC(=O)CC[C@@H](C)[C@H]2CC[C@H]3[C@@H]4[C@@H](O)C[C@@H]5CC[C@@H](C[C@]5(C)[C@H]4CC[C@]23C)n2cc(nn2)CO[C@H]2CC[C@H]3C[C@H](O)[C@@H]4[C@H](CC[C@]5(C)[C@@H]1CC[C@@H]45)[C@@]3(C)C2`, the IC50 turned out to be 465 nM. As to `C[C@@H]1CCC(=O)NCCCNC(=O)CC[C@@H](C)[C@H]2CC[C@H]3[C@@H]4[C@@H](O)C[C@@H]5C[C@@H](CC[C@]5(C)[C@H]4CC[C@]23C)NC(=O)CCCC(=O)N[C@@H]2CC[C@@]3(C)[C@@H](C2)C[C@H](O)[C@@H]2[C@@H]3CC[C@]3(C)[C@@H]1CC[C@@H]23`, the IC50 was determined as 564 nM. Take `C[C@H](CCC(=O)NCCS(=O)(=O)O)[C@H]1CC[C@H]2[C@@H]3[C@@H](O)C[C@@H]4C[C@H](OC(=O)CCCCCC(=O)O[C@@H]5CC[C@@]6(C)[C@@H](C5)C[C@H](O)[C@@H]5[C@@H]6CC[C@]6(C)[C@@H]([C@H](C)CCC(=O)NCCS(=O)(=O)O)CC[C@@H]56)CC[C@]4(C)[C@H]3CC[C@]12C`: the IC50 turned out to be 683 nM. On to `C[C@H](CCC(=O)O)[C@H]1CC[C@H]2[C@@H]3[C@@H](O)C[C@@H]4C[C@H](NC(=O)CCCC(=O)N[C@@H]5CC[C@@]6(C)[C@@H](C5)C[C@H](O)[C@@H]5[C@@H]6CC[C@]6(C)[C@@H]([C@H](C)CCC(=O)NCCS(=O)(=O)O)CC[C@@H]56)CC[C@]4(C)[C@H]3CC[C@]12C`, for which the IC50 was 93 nM. As to `C[C@@H]1CCC(=O)NCCCCCCNC(=O)CC[C@@H](C)[C@H]2CC[C@H]3[C@@H]4[C@@H](O)C[C@@H]5CC[C@@H](C[C@]5(C)[C@H]4CC[C@]23C)n2cc(nn2)CO[C@H]2CC[C@H]3C[C@H](O)[C@@H]4[C@H](CC[C@]5(C)[C@@H]1CC[C@@H]45)[C@@]3(C)C2`, the IC50 worked out at 210 nM.
